# Assay results reported in ChEMBL document CHEMBL3758123, “Synthesis, biological evaluation and molecular modeling study of some new thiazolodiazepine analogs as CNS active agents” (Bioorg Med Chem Lett, 2016).
# Active and inactive are the calls of the source. The calls are words filed in the database; no cut-off is given here.
# How the values were obtained:
# [1] = tested on: Mus musculus; assay: Anticonvulsant activity in Swiss albino mouse assessed as picrotoxin-induced convulsions frequency time at 200 mg/kg, ip administered for 30 mins followed by picrotoxin challenge; type: functional
# [2] = tested on: Mus musculus; assay: Anticonvulsant activity in ip dosed Swiss albino mouse assessed as protection against maximal electroshock-induced seizures administered for 30 mins followed by electric shock treatment; type: functional; details: 0.5 h
# [3] = tested on: Mus musculus; assay: Protective index, ratio of TD50 for Swiss albino mouse assessed as motor performance to ED50 for protection against maximal electroshock-induced seizure in ip dosed Swiss albino mouse; type: functional
# [4] = tested on: Mus musculus; assay: Anticonvulsant activity in Swiss albino mouse assessed as picrotoxin-induced onset of convulsion time at 200 mg/kg, ip administered for 30 mins followed by picrotoxin challenge; type: functional
# [5] = tested on: Mus musculus; assay: Potency index, ratio of compound activity to sodium valproate activity against pentylenetetrazole-induced seizure in ip dosed Swiss albino mouse; type: functional
# [6] = tested on: Mus musculus; assay: Hypnotic activity in mouse assessed as decrease in locomotors activity at 100 mg/kg, ip after 20 mins; type: functional, organism-based
# [7] = Therapeutic index, ratio of LD50 for ip dosed Swiss albino mouse to ED50 for protection against pentylenetetrazole induced seizure in ip dosed Swiss albino mouse; type: organism-based; details: in vivo, read-out: Ratio LD50/ED50
# [8] = tested on: Mus musculus; assay: Anticonvulsant activity in Swiss albino mouse assessed as protection against maximal electroshock-induced seizures at 100 mg/kg, ip administered for 30 mins followed by electric shock treatment; type: functional
# [9] = tested on: Mus musculus; assay: Protective index, ratio of TD50 for Swiss albino mouse assessed as motor performance to ED50 for protection against pentylenetetrazole-induced seizure in ip dosed Swiss albino mouse; type: functional
# [10] = tested on: Mus musculus; assay: Protective index, ratio of TD50 for Swiss albino mouse assessed as motor performance to ED50 for protection against picrotoxin-induced seizure in ip dosed Swiss albino mouse; type: functional
# [11] = tested on: Mus musculus; assay: Toxicity in picrotoxin-induced Swiss albino mouse convulsion model assessed as time of death at 200 mg/kg, ip administered for 30 mins followed by picrotoxin challenge; type: organism-based; details: in vivo, 0.5 h
# [12] = tested on: Mus musculus; assay: Hypnotic activity in mouse assessed as calmness at 100 mg/kg, ip after 20 mins; type: functional, organism-based
# [13] = tested on: Mus musculus; assay: Anticonvulsant activity in Swiss albino mouse assessed as protection against pentylenetetrazole-induced seizure at 100 mg/kg, ip after 20 mins; type: functional
# [14] = tested on: Mus musculus; assay: Hypnotic activity in mouse assessed as loss of righting reflex and sleep at 200 mg/kg, ip after 20 mins; type: functional, organism-based
# [15] = tested on: Mus musculus; assay: Hypnotic activity in mouse assessed as loss of righting reflex and sleep at 100 mg/kg, ip after 2 mins; type: functional, organism-based
# [16] = tested on: Mus musculus; assay: Anticonvulsant activity in Swiss albino mouse assessed as pentylenetetrazole induced convulsions frequency time at 200 mg/kg, ip administered for 20 mins followed by pentylenetetrazole challenge; type: functional
# [17] = tested on: Mus musculus; assay: Hypnotic activity in mouse assessed as quietness at 200 mg/kg, ip after 20 mins; type: functional, organism-based
# [18] = tested on: Mus musculus; assay: Anticonvulsant activity in Swiss albino mouse assessed as pentylenetetrazole induced onset of convulsion time at 200 mg/kg, ip administered for 20 mins followed by pentylenetetrazole challenge; type: functional
# [19] = tested on: Mus musculus; assay: Toxicity in pentylenetetrazole induced Swiss albino mouse convulsion model assessed as time of death at 200 mg/kg, ip administered for 20 mins followed by pentylenetetrazole challenge; type: organism-based; details: in vivo
# [20] = tested on: Mus musculus; assay: Anticonvulsant activity in Swiss albino mouse assessed as protection against pentylenetetrazole-induced seizure at 200 mg/kg, ip administered for 20 mins followed by pentylenetetrazole challenge; type: functional
# [21] = tested on: Mus musculus; assay: Hypnotic activity in mouse assessed as decrease in locomotors activity at 200 mg/kg, ip after 20 mins; type: functional, organism-based
# [22] = tested on: Mus musculus; assay: Hypnotic activity in mouse assessed as muscle relaxation at 200 mg/kg, ip after 15 mins; type: functional, organism-based
# [23] = tested on: Mus musculus; assay: Anticonvulsant activity in Swiss albino mouse assessed as protection against maximal electroshock-induced seizures at 200 mg/kg, ip administered for 30 mins followed by electric shock treatment; type: functional
# [24] = tested on: Mus musculus; assay: Anticonvulsant activity in Swiss albino mouse assessed as pentylenetetrazole induced convulsions frequency time at 100 mg/kg, ip administered for 20 mins followed by pentylenetetrazole challenge; type: functional
# [25] = tested on: Mus musculus; assay: Toxicity in pentylenetetrazole induced Swiss albino mouse convulsion model assessed as time of death at 100 mg/kg, ip administered for 20 mins followed by pentylenetetrazole challenge; type: organism-based; details: in vivo
# [26] = tested on: Mus musculus; assay: Hypnotic activity in mouse assessed as calmness at 200 mg/kg, ip after 20 mins; type: functional, organism-based
# [27] = tested on: Mus musculus; assay: Anticonvulsant activity in Swiss albino mouse assessed as pentylenetetrazole induced onset of convulsion time at 100 mg/kg, ip administered for 20 mins followed by pentylenetetrazole challenge; type: functional
smiles,measurement,setting,value
CC1=C(Br)SC2=NC(=O)CCCN21,Time,[1],5 min
same,ED50,[2],78 mg/kg
same,Ratio TD50/ED50,[3],2.17
same,Time,[4],13.5 min
same,Ratio,[5],4
same,Activity,[6],Active
same,selectivity ratio,[7],5.71
same,Activity,[8],100%
same,Ratio TD50/ED50,[9],1.51
same,Ratio TD50/ED50,[10],1.31
same,Time,[11],23.1 min
same,Activity,[12],Active
same,Activity,[13],100%
same,Activity,[14],Active
same,Activity,[15],Active
COc1ccc(/C=C2\CCN3C(C)=CSC3=NC2=O)cc1,Time,[1],9.5 min
same,Time,[16],1.9 min
same,Activity,[17],Active
same,Time,[18],2.3 min
same,Time,[4],11.3 min
same,Time,[11],20.7 min
same,Time,[19],5.1 min
CCOC(=O)C1=C(C)N2CCCC(=O)N=C2S1,Activity,[20],100%
same,Activity,[21],Active
same,ED50,[2],90 mg/kg
same,Ratio TD50/ED50,[3],2.22
same,Activity,[22],Active
same,Ratio,[5],2
same,selectivity ratio,[7],5.28
same,Ratio TD50/ED50,[9],1.57
same,Ratio TD50/ED50,[10],1.35
same,Activity,[23],100%
same,Time,[24],2 min
same,Time,[25],6.3 min
same,Activity,[26],Active
same,Time,[27],4.6 min
COc1ccc(/C=C2\CCN3C=C(C)SC3=NC2=O)cc1,Time,[1],3 min
same,Time,[16],5.3 min
same,Time,[18],4.1 min
same,Time,[4],10.1 min
same,Time,[11],8.1 min
same,Time,[19],27.3 min
same,Activity,[26],Active
CC1=CSC2=NC(=O)CCCN12,Time,[1],6.7 min
same,Time,[16],3.1 min
same,Activity,[17],Active
same,Time,[18],1.5 min
same,Time,[4],13.9 min
same,Time,[11],18.5 min
same,Time,[19],4.1 min
CCOC(=O)C1=C(C)N2CC/C(=C\c3ccc(OC)cc3)C(=O)N=C2S1,Time,[1],11.1 min
same,Time,[16],2.3 min
same,Time,[18],2.2 min
same,Time,[4],9.1 min
same,Time,[11],18.3 min
same,Time,[19],3.7 min
CC1=CN2CCCC(=O)N=C2S1,Time,[1],8.7 min
same,Time,[16],3.1 min
same,Activity,[17],Active
same,Time,[18],4.1 min
same,Time,[4],7.1 min
same,Time,[11],10.1 min
same,Time,[19],5.2 min
CC1=C(Sc2ccccc2C(=O)O)SC2=NC(=O)CCCN21,Time,[1],7.3 min
same,Time,[16],2.8 min
same,Time,[18],1.5 min
same,Activity,[21],Active
same,Time,[4],7.8 min
same,Time,[11],12.3 min
same,Time,[19],3.8 min
CC1=CN2CC/C(=C\c3ccc(Br)cc3)C(=O)N=C2S1,Time,[1],6 min
same,Time,[16],2.1 min
same,Time,[18],1.2 min
same,Time,[4],8 min
same,Time,[11],14.3 min
same,Time,[19],2.6 min
CCOC(=O)C1=C(C)N2CC/C(=C\c3ccc(Br)cc3)C(=O)N=C2S1,Time,[1],6.1 min
same,Time,[16],4.1 min
same,Time,[18],7.3 min
same,Activity,[21],Active
same,Time,[4],8.1 min
same,Time,[11],11.6 min
same,Time,[19],8.4 min
CC1=CSC2=NC(=O)/C(=C/c3ccc(Br)cc3)CCN12,Time,[1],2.5 min
same,Time,[16],2 min
same,Activity,[17],Active
same,Time,[18],2.1 min
same,Time,[4],12.5 min
same,Time,[11],19.5 min
same,Time,[19],3.6 min
